Measurements: US10633379B2, “Bromodomain inhibitors” (AbbVie Inc., priority 2016, dated 2020)
Each block holds one compound with its values, some of them ahead of it.

Key:
[1] = Xenograft tumor growth inhibition assay, SKM-1 (AML); type: in vivo, Female SCID Beige mice; details: female, SCID Beige, in vivo, mouse SKM-1 xenograft, oral, read-out: AUC, mouse efficacy, AML (SKM-1)
[2] = system: SKM-1_FP1 xenograft tumors; assay: as above; type: in vivo, Female SCID Beige mice; details: mouse SKM-1 xenograft, oral
BRD4 (BDII_E352-M457) = BRD4 (BDII_E352-M457) (Homo sapiens (Human), UniProt O60885); assay: TR-FRET bromodomain binding assay, BRD4 BDII; details: mean Ki, calculated from IC50, probe Kd and probe concentration
Summary of the method: (§1)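 His-tagged BRD4 BDI (12 nM, with 100 nM Alexa647 BET-inhibitor probe) or BDII (4 nM, 30 nM probe), plus 1 nM Eu-anti-His antibody, in pH 6.0 phosphate buffer with 2% DMSO. Equilibrated 1 h at room temperature and read by TR-FRET. IC50 from a 4-parameter fit was converted to Ki using probe Kd and probe concentration.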

[3] = Xenograft tumor growth inhibition assay, LNCaP (prostate); type: in vivo, Male NSG mice; details: male, NSG, in vivo, mouse LNCaP xenograft, oral, read-out: AUC, mouse efficacy, Prostate (LNCaP)
Method: (§2) The effect of compound of Example 32, 35 and Compound X to inhibit the growth of SKM-1_FP1 and LNCaP-FGC xenograft tumors was evaluated. Female SCID Beige mice (Charles River) were utilized for the SKM-1_FP1 flank xenograft model. Male NSG mice (JAX Labs) were used for the LNCaP-FGC study. Cells were suspended in PBS, mixed with Matrigel (phenol red free, Becton Dickinson Biosciences Discovery Labware) in a ratio of 1:4 (V/V) and inoculated subcutaneously into the flank (five million cells per site) of the mice. Inoculated mice were randomized into groups and treatment was initiated when mean tumor volume was 0.2-0.25 cm^3. The compounds were administered orally in (volume %): 1.5% DMSO, 30% PEG 400, and 68.5% Phosol 53 MCT. Tumor growth in the flank was assessed by measuring tumor size with calipers and calculating volume using the formula (L×W^2/2). Study groups were terminated prior to tumor volume reaching 3 cm^3. Inhibition of tumor growth was assessed at the time the vehicle-treated group was terminated by calculating the ratio of the mean volume of the test drug group to the mean volume of the untreated (control) group (T/C) and calculating percent tumor growth inhibition (% TGI).

[4] = system: LNCaP-FGC xenograft tumors; assay: as above; type: in vivo, Male NSG mice; details: mouse LNCaP xenograft, oral
Method: as §2

BRD4 (BDI_K57-E168) = BRD4 (BDI_K57-E168) (Homo sapiens (Human), UniProt O60885); assay: TR-FRET bromodomain binding assay, BRD4 BDI; details: mean Ki, calculated from IC50, probe Kd and probe concentration
Summary of the method: as §1

[5] = Fourteen day rat toxicology study, maximum tolerated exposure; details: for AUC at 14 day: po
Method: Compounds were dosed orally once daily, in Sprague-Dawley rats.

[6] = Sprague-Dawley, rat, in vivo, 14 day
[7] = Sprague-Dawley, rat, in vivo, 30 mg/kg

Compound: CCS(=O)(=O)Nc1ccc(Oc2ccc(F)cc2F)c(-c2cn(C)c(=O)c3[nH]ccc23)c1 [Compound X, N-[4-(2,4-difluorophenoxy)-3-(6-methyl-7-oxo-6,7-dihydro-1H-pyrrolo[2,3-c]pyridin-4-yl)phenyl]ethanesulfonamide, reference compound]
- AUC ([1]; dose 1 mg/kg): 1200 ng·h/mL
- % TGI, AML (SKM-1) ([2]; dose 1 mg/kg): 76%
- Ki (BRD4 (BDII_E352-M457)): 0.952 nM
- AUC ([3]; dose 1 mg/kg): 1200 ng·h/mL
- % TGI, Prostate (LNCaP) ([4]; dose 1 mg/kg): 64%
- Ki (BRD4 (BDI_K57-E168)): 2.09 nM
- AUC at 14 day ([5]; Sprague-Dawley, rat, in vivo, 1 mg/kg): 725 ng·h/mL
- AUC ratio (rat maximum tolerated exposure/mouse efficacious exposure) Prostate (LNCaP) ([5]; exposure margin versus mouse LNCaP xenograft): 0.6x
- AUC ratio (rat maximum tolerated exposure/mouse efficacious exposure) AML (SKM-1) ([5]; exposure margin versus mouse SKM-1 xenograft): 0.6x

Compound: Cc1cccc(C)c1Oc1ccc(C(C)(C)O)cc1-c1cn(C)c(=O)c2[nH]c(C(=O)NC(C)(C)C)cc12 [Example 32, N-tert-butyl-4-[2-(2,6-dimethylphenoxy)-5-(2-hydroxypropan-2-yl)phenyl]-6-methyl-7-oxo-6,7-dihydro-1H-pyrrolo[2,3-c]pyridine-2-carboxamide]
- AUC ([1]; dose 9.4 mg/kg): 5000 ng·h/mL
- % TGI, AML (SKM-1) ([2]; dose 9.4 mg/kg): 76%
- Ki (BRD4 (BDII_E352-M457)): 2.8 nM
- AUC ([3]; dose 30 mg/kg): 12600 ng·h/mL
- % TGI, Prostate (LNCaP) ([4]; dose 30 mg/kg): 60%
- Ki (BRD4 (BDI_K57-E168)): 599 nM
- AUC ratio (rat maximum tolerated exposure/mouse efficacious exposure) AML (SKM-1) [5, 6]: 14x
- AUC ratio (rat maximum tolerated exposure/mouse efficacious exposure) Prostate (LNCaP) [5, 6]: 5.5x
- AUC at 14 day [5, 7]: 69200 ng·h/mL

Compound: CCNC(=O)c1cc2c(-c3cc(C(C)(C)O)ccc3Oc3c(C)cc(F)cc3C)cn(C)c(=O)c2[nH]1 [Example 35, N-ethyl-4-[2-(4-fluoro-2,6-dimethylphenoxy)-5-(2-hydroxypropan-2-yl)phenyl]-6-methyl-7-oxo-6,7-dihydro-1H-pyrrolo[2,3-c]pyridine-2-carboxamide]
- AUC ([1]; dose 4.7 mg/kg): 840 ng·h/mL
- % TGI, AML (SKM-1) ([2]; dose 4.7 mg/kg): 74%
- AUC ([3]; dose 4.7 mg/kg): 1100 ng·h/mL
- % TGI, Prostate (LNCaP) ([4]; dose 4.7 mg/kg): 64%
- AUC at 14 day [5, 7]: 27500 ng·h/mL

- Ki (BRD4 (BDII_E352-M457)): 2.3 nM
- Ki (BRD4 (BDI_K57-E168)): 649 nM
Compound: CCNC(=O)c1cc2c(-c3cc(C4(O)CCOCC4)ccc3Oc3c(C)cc(F)cc3C)cn(C)c(=O)c2[nH]1 [Example 129, N-ethyl-4-[2-(4-fluoro-2,6-dimethylphenoxy)-5-(4-hydroxyoxan-4-yl)phenyl]-6-methyl-7-oxo-6,7-dihydro-1H-pyrrolo[2,3-c]pyridine-2-carboxamide]

Compound: N-tert-butyl-4-[2-(2,6-dimethylphenoxy)-5-(2-hydroxypropan-2-yl)pyridin-3-yl]-6-methyl-7-oxo-6,7-dihydro-1H-pyrrolo[2,3-c]pyridine-2-carboxamide [Example 50]
- Ki (BRD4 (BDII_E352-M457)): 1.3 nM
- Ki (BRD4 (BDI_K57-E168)): 318 nM
